This is an account of results in PubChem BioAssay (NCI).

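Interpolation was linear, between the two tested concentrations surrounding the appropriate level; five concentrations were tested over 48 hours in 96-well plates. TGI is the concentration that stops growth completely.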 Bounds are passed on as bounds.

Among the test systems are DLD-1 colon; KM20L2 colon; XF 498 CNS; LXFL 529 NSCLC; SNB-78 CNS; DMS 273 small cell lung; HOP-18 NSCLC; RXF-631 renal.
Holding throughout (assay): NCI tumour cell line growth inhibition, 48 h

Turning to `O=C1CSC(/C(=C/c2ccccc2)c2nc3ccccc3[nH]2)=N1`, the TGI in the assay on DLD-1 colon, with KM20L2 colon, in the assay with XF 498 CNS, in the assay with LXFL 529 NSCLC and with SNB-78 CNS was greater than 100 µM throughout.

As for `CC1(c2cccc3c2C2(O)C=CC4(CCC32)OCCO4)OCCO1` (stereo not drawn), the TGI in the assay with DLD-1 colon, in the assay with KM20L2 colon, in the assay with DMS 273 small cell lung, with LXFL 529 NSCLC, in the assay on HOP-18 NSCLC and in the assay on SNB-78 CNS was greater than 100 µM each time.

On to `O=C(CC(=O)C(=O)Nc1ccccc1)CC(c1ccccc1)c1c(O)c2ccccc2oc1=O` (stereo not drawn), for which the TGI in the assay with DLD-1 colon, with KM20L2 colon, with DMS 273 small cell lung, in the assay on RXF-631 renal and in the assay on HOP-18 NSCLC was greater than 100 µM throughout.

As to `COc1ccc(N(C)CN(C)c2nc(N(C)C)nc(N(C)C)n2)cc1`, the TGI in the assay with DLD-1 colon, with KM20L2 colon, in the assay with DMS 273 small cell lung, with LXFL 529 NSCLC, in the assay with HOP-18 NSCLC and in the assay with SNB-78 CNS was greater than 100 µM in each case.

With `CC1=CCC2(C#N)CCC1C2O` (stereo not drawn), the TGI with DLD-1 colon, with KM20L2 colon, in the assay on XF 498 CNS, in the assay with DMS 273 small cell lung, with LXFL 529 NSCLC and in the assay on HOP-18 NSCLC was greater than 100 µM in each case. Besides, the TGI in the assay on SNB-78 CNS was greater than 100 µM.

For `COC(=O)C1CC(=O)CCC1c1ccccc1` (stereo not drawn), the TGI in the assay on DLD-1 colon, in the assay with KM20L2 colon, in the assay with DMS 273 small cell lung, in the assay on LXFL 529 NSCLC, in the assay on HOP-18 NSCLC and in the assay with SNB-78 CNS was greater than 100 µM in each case.

Regarding `C#CCSc1nc(N)c2ncn(C3OC(CO)C(O)C3O)c2n1` (stereo not drawn), the TGI in the assay with DLD-1 colon, in the assay with XF 498 CNS, with DMS 273 small cell lung, in the assay with LXFL 529 NSCLC and in the assay on SNB-78 CNS was greater than 100 µM in each case.

In the case of `C=C[C@@]1(C)CCC2(O)C(CCC3C2(C)CCC[C@@]3(C)COC(=O)CC(=O)OC)C1` (stereo partly drawn), the TGI in the assay on DLD-1 colon was determined as 32.1 µM; with KM20L2 colon, 33.6 µM; with XF 498 CNS, 40.6 µM; in the assay on LXFL 529 NSCLC, 33 µM; with RXF-631 renal it was 38.2 µM; in the assay on SNB-78 CNS, 68.9 µM.

As for `COc1ccc(-c2cnoc2-c2ccc(OC)c(OC)c2)cc1OC`, the TGI in the assay on DLD-1 colon was greater than 63.7 µM; with KM20L2 colon, greater than 22.4 µM; in the assay with XF 498 CNS, 9.99 µM; with DMS 273 small cell lung, 2.02 µM; in the assay on LXFL 529 NSCLC it was greater than 100 µM; in the assay with HOP-18 NSCLC it was greater than 59.5 µM. Besides, the TGI with SNB-78 CNS is greater than 26.8 µM.

Regarding `CC12CCC([C@H](N3CCOCC3)/C1=N\OCCN1CCCC1)C2(C)C` (stereo partly drawn), the TGI in the assay on DLD-1 colon, in the assay on KM20L2 colon, in the assay with DMS 273 small cell lung, with LXFL 529 NSCLC, in the assay on RXF-631 renal and in the assay with HOP-18 NSCLC was greater than 100 µM throughout. For the same compound, the TGI with SNB-78 CNS is greater than 100 µM.

On to `O=C(C/C(=N\NC(=O)C[n+]1ccccc1)C(=O)Nc1nc2ccc([N+](=O)[O-])cc2s1)CC(c1ccccc1)c1c(O)c2ccccc2oc1=O` (stereo not drawn), for which the TGI in the assay on DLD-1 colon and in the assay with KM20L2 colon was greater than 100 µM throughout.

`C=CCC1C(=O)C(C(=O)OC)N2CCc3c([nH]c4ccccc34)C12` (stereo not drawn): the TGI in the assay with DLD-1 colon, with KM20L2 colon and with LXFL 529 NSCLC was greater than 100 µM each time.

As to `CC(=O)OCCOCNC(=S)N/N=C/c1ccc2ccccc2n1`, the TGI with DLD-1 colon is greater than 100 µM; in the assay on KM20L2 colon, 79.8 µM; in the assay with XF 498 CNS, greater than 100 µM; with DMS 273 small cell lung, greater than 100 µM; in the assay with LXFL 529 NSCLC, greater than 100 µM; in the assay on RXF-631 renal it was greater than 100 µM. Also, the TGI with HOP-18 NSCLC and in the assay with SNB-78 CNS was greater than 100 µM each time.
